Assay: Solubility in organic solvent (toluene)
Type: physicochemical

Compound: C=CC[Si](C#Cc1c2cc3ccccc3cc2c(C#C[Si](CC=C)(C(C)C)C(C)C)c2cc3ccccc3cc12)(C(C)C)C(C)C [Compound I, 6,13-bis(allyldiisopropylsilylethynyl)pentacene]
- solubility in toluene: greater than 21 wt %

Reference: US8956555B2, “Silylethynyl pentacene compounds and compositions and methods of making and using the same” (3M Innovative Properties Company, priority 2008, dated 2015)
